Results published in ChEMBL document CHEMBL1132640, “Structure-based design, synthesis, and X-ray crystallography of a high-affinity antagonist of the Grb2-SH2 domain containing an asparagine mimetic” (J Med Chem, 1999).

Target: Growth factor receptor-bound protein 2 (Homo sapiens, UniProt P62993)
Test: Inhibition of Grb2-SH2 domain binding to phospho-EGF receptor intracellular C-terminal domain
Type: cell-based

Growth factor receptor-bound protein 2, sequence (P62993 whole entry, the tested form may be a part): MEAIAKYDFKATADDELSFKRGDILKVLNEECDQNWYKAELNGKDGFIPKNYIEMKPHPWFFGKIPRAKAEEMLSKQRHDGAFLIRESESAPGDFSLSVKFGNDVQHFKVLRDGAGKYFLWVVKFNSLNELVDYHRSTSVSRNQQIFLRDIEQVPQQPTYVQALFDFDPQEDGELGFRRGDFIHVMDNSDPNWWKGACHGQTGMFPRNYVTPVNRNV

| Structure (SMILES) | IC50 [nM] |
| --- | --- |
| NC(=O)C[C@H](NC(=O)C1(NC(=O)[C@H](Cc2ccc(OP(=O)(O)O)cc2)NC(=O)OCc2cccc(N)c2)CCCCC1)C(N)=O | 1 |
| NC(=O)[C@@H]1CCC=C[C@@H]1NC(=O)C1(NC(=O)[C@H](Cc2ccc(OP(=O)(O)O)cc2)NC(=O)OCc2cccc(N)c2)CCCCC1 | > 5000 |
